Test system: SH-SY5Y M-currents (KCNQ2, KCNQ3 and KCNQ5)
Experiment: SH-SY5Y native cell line FLIPR assay (voltage-sensitive dye DiBAC)
Assay type: cell-based, mouse neuroblastoma, rat glioma hybrid cell line
Settings: SH-SY5Y native cell line, FLIPR assay (Table 3); read-out: SH-SY5Y EC50
Method in brief: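 Response is peak DiBAC fluorescence change, normalised to the maximum from a positive control agent, sampled every 30 s over 25 min. Before compound addition, SH-SY5Y cells differentiated with PGE1 plus isomethylbutylxanthine were dye-loaded for 1 h in EBSS with […] DiBAC.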

Row | Structure (SMILES) | EC50
1 | Cc1ccc(-c2c(N(C(=O)CC(C)(C)C)C(=O)CC(C)(C)C)nc3ccc(F)cn23)nc1 [Compound 356, N-(3,3-dimethylbutanoyl)-N-(6-fluoro-3-(5-methylpyridin-2-yl)imidazo[1,2-a]pyridin-2-yl)-3,3-dimethylbutanamide] | 3000 to 10000 nM
2 | CC(C)(C)CC(=O)N(C(=O)CC(C)(C)C)c1nc2ccc(F)cn2c1-c1cccc(C(F)(F)F)n1 [Compound 357, N-(3,3-dimethylbutanoyl)-N-(6-fluoro-3-(6-(trifluoromethyl)pyridin-2-yl)imidazo[1,2-a]pyridin-2-yl)-3,3-dimethylbutanamide] | 3000 to 10000 nM
3 | CC(C)(C)CC(=O)N(C(=O)CC(C)(C)C)c1nc2ccc(F)cn2c1-c1nc2ccccc2s1 [Compound 358, N-(3-(benzo[d]thiazol-2-yl)-6-fluoroimidazo[1,2-a]pyridin-2-yl)-N-(3,3-dimethylbutanoyl)-3,3-dimethylbutanamide] | 3000 to 10000 nM
4 | Cc1ccc(-c2c(NC(=O)CC(C)(C)C)nc3ccc(F)cn23)nc1 [Compound 359, N-(6-fluoro-3-(5-methylpyridin-2-yl)imidazo[1,2-a]pyridin-2-yl)-3,3-dimethylbutanamide] | 500 to 3000 nM
5 | CC(C)(C)CC(=O)Nc1nc2ccc(F)cn2c1-c1cccc(C(F)(F)F)n1 [Compound 361, N-(6-fluoro-3-(6-(trifluoromethyl)pyridin-2-yl)imidazo[1,2-a]pyridin-2-yl)-3,3-dimethylbutanamide] | < 500 nM
6 | CC(C)(C)CC(=O)Nc1nc2ccc(F)cn2c1-c1ncccn1 [Compound 362, N-(6-fluoro-3-(pyrimidin-2-yl)imidazo[1,2-a]pyridin-2-yl)-3,3-dimethylbutanamide] | 3000 to 10000 nM
7 | CC(C)(C)CC(=O)Nc1nc2ccc(F)cn2c1-c1cc(Cl)ccn1 [Compound 364, N-(3-(4-chloropyridin-2-yl)-6-fluoroimidazo[1,2-a]pyridin-2-yl)-3,3-dimethylbutanamide] | 500 to 3000 nM
8 | Cc1ccnc(-c2c(NC(=O)CC(C)(C)C)nc3ccc(F)cn23)c1 [Compound 365, N-(6-fluoro-3-(4-methylpyridin-2-yl)imidazo[1,2-a]pyridin-2-yl)-3,3-dimethylbutanamide] | 500 to 3000 nM
9 | COc1cccc(-c2c(NC(=O)CC(C)(C)C)nc3ccc(F)cn23)n1 [Compound 367, N-(6-fluoro-3-(6-methoxypyridin-2-yl)imidazo[1,2-a]pyridin-2-yl)-3,3-dimethylbutanamide] | 500 to 3000 nM
10 | CC(C)C(C)C(=O)Nc1nc2ccc(F)cn2c1-c1ccc(F)cn1 (centres unmarked) [Compound 368, N-(6-fluoro-3-(5-fluoropyridin-2-yl)imidazo[1,2-a]pyridin-2-yl)-2,3-dimethylbutanamide] | 3000 to 10000 nM
11 | CC(CC(=O)Nc1nc2ccc(F)cn2c1-c1ccc(F)cn1)C(F)(F)F (centres unmarked) [Compound 369, 4,4,4-trifluoro-N-(6-fluoro-3-(5-fluoropyridin-2-yl)imidazo[1,2-a]pyridin-2-yl)-3-methylbutanamide] | 3000 to 10000 nM
12 | CC(C)n1cc(-c2c(NC(=O)CC(C)(C)C)nc3ccc(F)cn23)cn1 [Compound 370, N-(6-fluoro-3-(1-isopropyl-1H-pyrazol-4-yl)imidazo[1,2-a]pyridin-2-yl)-3,3-dimethylbutanamide] | 3000 to 10000 nM
13 | CC(C)(C)CCC(=O)Nc1nc2ccc(F)cn2c1-c1nc2ccccc2s1 [Compound 372, N-(3-(benzo[d]thiazol-2-yl)-6-fluoroimidazo[1,2-a]pyridin-2-yl)-4,4-dimethylpentanamide] | 500 to 3000 nM
14 | CC(C)C(C)C(=O)Nc1nc2ccc(F)cn2c1-c1nc2ccccc2s1 (centres unmarked) [Compound 373, N-(3-(benzo[d]thiazol-2-yl)-6-fluoroimidazo[1,2-a]pyridin-2-yl)-2,3-dimethylbutanamide] | 3000 to 10000 nM
15 | CC(CC(=O)Nc1nc2ccc(F)cn2c1-c1nc2ccccc2s1)C(F)(F)F (centres unmarked) [Compound 374, N-(3-(benzo[d]thiazol-2-yl)-6-fluoroimidazo[1,2-a]pyridin-2-yl)-4,4,4-trifluoro-3-methylbutanamide] | 3000 to 10000 nM
16 | CC1(CC(=O)Nc2nc3ccc(F)cn3c2-c2nc3ccccc3s2)CCCC1 [Compound 375, N-(3-(benzo[d]thiazol-2-yl)-6-fluoroimidazo[1,2-a]pyridin-2-yl)-2-(1-methylcyclopentyl)acetamide] | < 500 nM
17 | CC(C)(C)CC(=O)Nc1nc2ccc(C(F)(F)F)cn2c1-c1nc2ccccc2s1 [Compound 376, N-(3-(benzo[d]thiazol-2-yl)-6-(trifluoromethyl)imidazo[1,2-a]pyridin-2-yl)-3,3-dimethylbutanamide] | < 500 nM
18 | CC(C)(C)CC(=O)Nc1nc2ccc(F)cn2c1-c1nccc(C(F)(F)F)n1 [Compound 377, N-(6-fluoro-3-(4-(trifluoromethyl)pyrimidin-2-yl)imidazo[1,2-a]pyridin-2-yl)-3,3-dimethylbutanamide] | 3000 to 10000 nM
19 | O=C(Nc1nc2ccc(F)cn2c1-c1nc2ccccc2s1)C1CCCC1 [Compound 378, N-(3-(benzo[d]thiazol-2-yl)-6-fluoroimidazo[1,2-a]pyridin-2-yl)cyclopentanecarboxamide] | 3000 to 10000 nM

Row | Structure (SMILES) | EC50
20 | O=C(Cc1ccc(F)cc1)Nc1nc2ccc(F)cn2c1-c1nc2ccccc2s1 [Compound 379, N-(3-(benzo[d]thiazol-2-yl)-6-fluoroimidazo[1,2-a]pyridin-2-yl)-2-(4-fluorophenyl)acetamide] | 500 to 3000 nM
21 | O=C(CC1CCCC1)Nc1nc2ccc(F)cn2c1-c1nc2ccccc2s1 [Compound 380, N-(3-(benzo[d]thiazol-2-yl)-6-fluoroimidazo[1,2-a]pyridin-2-yl)-2-cyclopentylacetamide] | 500 to 3000 nM
22 | O=C(CC(F)(F)F)Nc1nc2ccc(F)cn2c1-c1nc2ccccc2s1 [Compound 381, N-(3-(benzo[d]thiazol-2-yl)-6-fluoroimidazo[1,2-a]pyridin-2-yl)-3,3,3-trifluoropropanamide] | 500 to 3000 nM
23 | Cc1ccc2nc(NC(=O)CC(C)(C)C)c(-c3nc4ccccc4s3)n2n1 [Compound 382, N-(3-(benzo[d]thiazol-2-yl)-6-methylimidazo[1,2-b]pyridazin-2-yl)-3,3-dimethylbutanamide] | 3000 to 10000 nM
24 | CC(CC(=O)Nc1nc2ccc(F)cn2c1-c1nccs1)C(F)(F)F (centres unmarked) [Compound 383, 4,4,4-trifluoro-N-(6-fluoro-3-(thiazol-2-yl)imidazo[1,2-a]pyridin-2-yl)-3-methylbutanamide] | 3000 to 10000 nM
25 | O=C(Cc1ccc(F)cc1)Nc1nc2ccc(F)cn2c1-c1nccs1 [Compound 384, N-(6-fluoro-3-(thiazol-2-yl)imidazo[1,2-a]pyridin-2-yl)-2-(4-fluorophenyl)acetamide] | 500 to 3000 nM
26 | Cc1ccc2nc(NC(=O)Cc3ccc(F)cc3)c(-c3nc4ccccc4s3)n2n1 [Compound 385, N-(3-(benzo[d]thiazol-2-yl)-6-methylimidazo[1,2-b]pyridazin-2-yl)-2-(4-fluorophenyl)acetamide] | 3000 to 10000 nM
27 | Cc1ccc2nc(NC(=O)CC(C)C(F)(F)F)c(-c3nc4ccccc4s3)n2n1 (centres unmarked) [Compound 386, N-(3-(benzo[d]thiazol-2-yl)-6-methylimidazo[1,2-b]pyridazin-2-yl)-4,4,4-trifluoro-3-methylbutanamide] | 3000 to 10000 nM
28 | Cc1ccc2nc(NC(=O)CC(C)(C)C)c(-c3nccs3)n2n1 [Compound 387, 3,3-dimethyl-N-(6-methyl-3-(thiazol-2-yl)imidazo[1,2-b]pyridazin-2-yl)butanamide] | 3000 to 10000 nM
29 | Cc1ccc2nc(NC(=O)CC(C)C(F)(F)F)c(-c3nccs3)n2n1 (centres unmarked) [Compound 388, 4,4,4-trifluoro-3-methyl-N-(6-methyl-3-(thiazol-2-yl)imidazo[1,2-b]pyridazin-2-yl)butan amide] | 3000 to 10000 nM
30 | Cc1ccc2nc(NC(=O)C3CCC(F)(F)CC3)c(-c3nccs3)n2n1 [Compound 389, 4,4-difluoro-N-(6-methyl-3-(thiazol-2-yl)imidazo[1,2-b]pyridazin-2-yl)cyclohexanecarboxamide] | 3000 to 10000 nM
31 | Cc1ccc2nc(NC(=O)Cc3ccc(F)cc3)c(-c3nccs3)n2n1 [Compound 390, 2-(4-fluorophenyl)-N-(6-methyl-3-(thiazol-2-yl)imidazo[1,2-b]pyridazin-2-yl)acetamide] | 3000 to 10000 nM
32 | O=C(Nc1nc2ccc(F)cn2c1-c1nccs1)C1CCC(F)(F)CC1 [Compound 391, 4,4-difluoro-N-(6-fluoro-3-(thiazol-2-yl)imidazo[1,2-a]pyridin-2-yl)cyclohexanecarboxamide] | < 500 nM
33 | Cc1cccc2nc(NC(=O)CC(C)(C)C)c(-c3nc4ccccc4s3)n12 [Compound 392, N-(3-(benzo[d]thiazol-2-yl)-5-methylimidazo[1,2-a]pyridin-2-yl)-3,3-dimethylbutanamide] | 3000 to 10000 nM
34 | Cc1cccc2nc(NC(=O)Cc3ccc(F)cc3)c(-c3nc4ccccc4s3)n12 [Compound 393, N-(3-(benzo[d]thiazol-2-yl)-5-methylimidazo[1,2-a]pyridin-2-yl)-2-(4-fluorophenyl)acetamide] | 500 to 3000 nM
35 | Cc1ccc2nc(NC(=O)CC(C)(C)C)c(-c3cc(C(F)(F)F)ccn3)n2n1 [Compound 394, 3,3-dimethyl-N-(6-methyl-3-(4-(trifluoromethyl)pyridin-2-yl)imidazo[1,2-b]pyridazin-2-yl)butanamide] | 3000 to 10000 nM
36 | Cc1ccc2nc(NC(=O)Cc3ccc(F)cc3)c(-c3cc(C(F)(F)F)ccn3)n2n1 [Compound 395, 2-(4-fluorophenyl)-N-(6-methyl-3-(4-(trifluoromethyl)pyridin-2-yl)imidazo[1,2-b]pyridazin-2-yl)acetamide] | 3000 to 10000 nM
37 | Cc1ccc2nc(NC(=O)CC(C)C(F)(F)F)c(-c3cc(C(F)(F)F)ccn3)n2n1 (centres unmarked) [Compound 396, 4,4,4-trifluoro-3-methyl-N-(6-methyl-3-(4-(trifluoromethyl)pyridin-2-yl)imidazo[1,2-b]pyridazin-2-yl)butanamide] | 3000 to 10000 nM

Same assay, conditions: read-out: SH-SY5Y_EC50

Row | Structure (SMILES) | EC50
38 | O=C(CC(F)(F)F)Nc1nc2ccc(F)cn2c1-c1nc2ccccc2s1 [Compound 381, N-(3-(benzo[d]thiazol-2-yl)-6-fluoroimidazo[1,2-a]pyridin-2-yl)-3,3,3-trifluoropropanamide] | 2130 nM

Source: US9018208B2, “Heterocycles as potassium channel modulators” (Icagen Inc., priority 2007, dated 2015)
